The values that follow come from PubChem BioAssay AID1329 (NMMLSC, 2008).

The source made the active and inactive calls. No rule for the calls is given here.

Chain of Induced myeloid leukemia cell differentiation protein Mcl-1 (Homo sapiens) (Q07820 whole entry, looked up): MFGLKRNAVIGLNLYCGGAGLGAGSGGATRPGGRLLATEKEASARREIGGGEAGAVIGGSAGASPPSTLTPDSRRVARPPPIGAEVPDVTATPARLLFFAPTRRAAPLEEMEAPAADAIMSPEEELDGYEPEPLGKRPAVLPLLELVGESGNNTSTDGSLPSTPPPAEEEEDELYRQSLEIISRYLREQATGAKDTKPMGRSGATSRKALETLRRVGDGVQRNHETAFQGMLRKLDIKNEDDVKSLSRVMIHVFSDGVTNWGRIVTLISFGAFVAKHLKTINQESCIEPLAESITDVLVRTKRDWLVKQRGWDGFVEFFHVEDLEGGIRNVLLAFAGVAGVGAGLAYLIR

This assay addresses Induced myeloid leukemia cell differentiation protein Mcl-1 (Homo sapiens) (UniProt Q07820). The assay can be described thus: Mcl-1/Bim interaction regulators – biochemical, bead-based flow cytometry, multiplexed, human, dose response (AID 1329). The conditions noted are these: Bim peptide-Mcl-1 binding, MCF. (Flow cytometry measures light scatter and fluorescence of single cells or particles in a stream.)
For `CN(CCc1ccccn1)C(=O)CCC1CCCN(C(=O)NC2CCCCC2)C1` (stereo unspecified), the percent span entry was “inactive”.
Take `CCCCCCc1cc2cc(C(=O)Nc3ccccc3)c(=O)oc2cc1O`: the percent span result is “inactive”.
Turning to `Cc1nc(NC(=O)CC(C)C)sc1-c1csc(Nc2ccc(Cl)cc2)n1`, the percent span entry is “inactive”.
Take `O=C(Nc1nccs1)c1ccc(COc2ccc(F)cc2)o1`: the percent span entry is “inactive”.
As for `CCOc1ccccc1CNc1ccc(O)cc1`, the entry is “inactive”.
The value for `COc1cc(NC(=S)NCCCO)c(OC)cc1Cl` was “inactive”; that for `Oc1ccc(C=NCC2COc3ccccc3O2)cc1` (stereo unspecified) was “inactive”; that for `Cc1ccccc1OCC(=O)N/N=C/c1ccccn1` was “inactive”.
Turning to `Cc1sc2nc(C(C)C)nc(SCC(=O)N3c4ccccc4CC3C)c2c1C` (stereo unspecified), the percent span result is “inactive”.
Take `CCc1cccc(CC)c1-n1c(-c2cccnc2)n[nH]c1=S`: the percent span result was “inactive”.
The value for `COc1ccc2nc(C)cc(SCC(=O)N/N=C/c3ccc(O)c(O)c3)c2c1` was “inactive”; that for `Cc1cc2nc(/C(C#N)=C/c3ccncc3)[nH]c2cc1C` was “inactive”.
Take `Cc1ccc(C2=N/C(=C/c3cccs3)C(=O)N2Nc2ccccc2)cc1`: the percent span entry is “inactive”.
`CNc1ccc(Br)cc(C(=O)/C=C/c2cccc(OC)c2OC)c1=O`: the percent span result is “inactive”.
Consider `CN(C)c1ccc(C(=O)/C=C/c2ccc(Br)cc2)cc1`, for which the percent span entry was “inactive”.
The value for `CC(NC(=O)Nc1ccccn1)N1C(=O)C2C3C=CC(C3)C2C1=O` (stereo unspecified) was “inactive”; that for `CCC(=O)N(CC)C1=C(O)c2ccccc2C(=O)C1=O` was “inactive”.
Turning to `CC(C)=C1C(=O)NN(c2ccc(C)c(Cl)c2)C1=O`, the percent span entry is “inactive”.
As to `CCN(CC)c1ccc(NC2=C(Cl)C(=O)c3ccccc3C2=O)cc1`, the percent span result was “inactive”.
In the case of `O=C(Nc1ccccn1)c1cc2ccccc2o1`, the percent span result was “inactive”.
Consider `O=C(N/N=C/c1ccc(-c2ccccc2[N+](=O)[O-])o1)c1cncc(Br)c1`, for which the percent span entry is “inactive”.
As to `Cc1cc(C)c2nc3nc(C)c(C)cc3c(N)c2c1`, the percent span entry is “inactive”.
On to `COc1ccc(C2=Nc3cccc4cccc(c34)N2)cc1`, for which the percent span entry was “inactive”.
Consider `C#CCOCCOCCOCCNc1nc(N2CCN(C(=O)[C@H]([C@@H](C)CC)n3cc([C@@H](N)CC(C)C)nn3)CC2)nc(N2CCN(C(=O)[C@H](Cc3cc4ccccc4[nH]3)n3cc([C@@H](N)Cc4ccc(O)cc4)nn3)CC2)n1`, for which the percent span entry was “inactive”.
Turning to `CCN(CC)CCN(C(=O)c1ccc(N2C(=O)CCC2=O)cc1)c1nc2cc3c(cc2s1)OCCO3`, the percent span entry was “inactive”.
Take `COc1ccccc1Nc1nc(-c2c(C)nc3ncccn23)cs1`: the percent span entry was “inactive”.
With `O=C(Nc1nnc(C2CC2)s1)C1Cc2ccccc2CN1S(=O)(=O)c1ccccc1F` (stereo unspecified), the percent span entry is “inactive”.
The value for `Cc1cc(C(=O)NCCCN(C)C)c2ccccc2n1` was “inactive”; that for `O=C(OCc1cnc(Cl)s1)c1cccc(Cl)c1Cl` was “inactive”.
Regarding `CCOc1cc(S(=O)(=O)Nc2ccccn2)ccc1F`, the percent span result is “inactive”.
Regarding `O=C(C1=C(Nc2ccccc2)c2ccccc2S(=O)(=O)N1)c1ccccc1`, the percent span result is “inactive”.
As to `NC(=O)CSc1nnc(Cn2cnc3ccccc32)o1`, the percent span result was “inactive”.
Consider `Cc1cccc(Nc2nc(-c3ccncc3)cs2)c1`, for which the percent span entry was “inactive”.
Take `O=C(CC1NCCNC1=O)Nc1cccc([N+](=O)[O-])c1` (stereo unspecified): the percent span result was “inactive”.
With `CCOC(=O)c1ccc(N=c2ssnc2Cl)cc1`, the percent span result is “inactive”.
For `CS(=O)(=O)NN1C(=O)c2ccccc2NC1c1ccccc1` (stereo unspecified), the percent span entry is “inactive”.
As for `O=C(/C=C/c1ccc(-c2ccccc2)o1)c1ccccc1`, the percent span entry is “inactive”.
For `COC(=O)c1cc(OC)c(OC)cc1NC(=O)Nc1cccc(C(C)=O)c1`, the percent span entry is “inactive”.
In the case of `COc1cccc2c1C(=O)C=C(C)C2=O`, the percent span result was “inactive”.
For `CC(C)(C)C(=O)NC(NC(=S)Nc1ccc(S(N)(=O)=O)cc1)C(Cl)(Cl)Cl` (stereo unspecified), the percent span entry is “inactive”.
Turning to `Cc1nc2scc(-c3ccccc3)c2c(=O)n1N=C1C=CC(=O)C=C1`, the percent span entry was “inactive”.
For the compound `Fc1ccccc1/C=C1\CCCC2=C1NC(=S)NC2c1ccccc1F` (stereo unspecified), the percent span entry is “inactive”.
In the case of `CCC(=O)NC(c1ccc(C)cc1)c1cc([N+](=O)[O-])c2cccnc2c1O` (stereo unspecified), the percent span entry is “inactive”.
`CC(C)(C)OC(=O)N1CCN(C(=O)[C@H](Cc2ccc(O)cc2)n2cc(CCO)nn2)CC1`: the percent span result is “inactive”.
For `COc1ccc(NC(=O)COc2ncnc3ccccc23)cc1S(=O)(=O)N1CCOCC1`, the percent span entry is “inactive”.
In the case of `CCOC(=O)C1(CC/C(C)=N\NC(N)=O)CC(C)(C)OC1=O` (stereo unspecified), the percent span result is “inactive”.
The value for `CCOc1ccc(CNc2ccc(N3CCCC3)cc2)cc1` was “inactive”; that for `NC(=O)c1c(NC(=O)C2CCCO2)sc2c1CCCCC2` (stereo unspecified) was “inactive”.
As to `S=c1[nH]cc(-c2ccccc2)n1-c1ccccc1`, the percent span entry was “inactive”.
With `O=C(C1=NN(c2ccccc2)C2C(=O)N(c3ccccc3)C(=O)C12)c1ccccc1` (stereo unspecified), the percent span result was “inactive”.
In the case of `COC(=O)CCC(=O)Nc1sc(C)c(C)c1C(N)=O`, the percent span result is “inactive”.
For `Cc1cc(-c2csc(N)n2)c(C)n1C`, the percent span entry was “inactive”.
For the compound `Cc1ccnc(NS(=O)(=O)c2ccc(NC(=O)c3c(-c4ccccc4Cl)noc3C)cc2)n1`, the percent span entry is “inactive”.
Consider `O=C(O)/C=C/C(=O)NNC(=O)c1ccc(Br)cc1`, for which the percent span entry was “inactive”.
Regarding `CN(C)/C=C/C(=O)c1ccc(C(F)(F)F)cc1F`, the percent span result was “inactive”.
In the case of `C/C(=N\NC(=O)Cn1nc(C)c([N+](=O)[O-])c1C)c1ccc(O)cc1`, the percent span entry was “inactive”.
With `Nc1ccc(N2CCN(CCCCN3C(=O)C4CCCN4C3=O)CC2)cc1` (stereo unspecified), the percent span result was “inactive”.
Regarding `CN(C)c1ccc(/C=C2/SC(=O)N(CCN=C3NS(=O)(=O)c4ccccc43)C2=O)cc1`, the percent span result is “inactive”.
With `Cc1cccc(NC(=S)N2CCn3cccc3C2c2cccnc2)c1` (stereo unspecified), the percent span entry was “inactive”.
`CC1(C)CC(NC(=O)COc2ccc([N+](=O)[O-])cc2)CC(C)(C)N1`: the percent span result was “inactive”.
In the case of `CCn1c(SCC(=O)Nc2ccccc2-c2ccccc2)nnc1-c1ccoc1C`, the percent span result is “inactive”.
For `Cc1ccc(C)c(N2CCN(C(=S)Nc3ccc4nc(N5CCN(C)CC5)cc(C)c4c3)CC2)c1`, the percent span result is “inactive”.
As for `CNc1ccc(Br)cc(C(=O)/C=C/c2cc(OC)ccc2OC)c1=O`, the entry is “inactive”; as for `CC1(C(=O)N(CC(=O)NC2CCCC2)Cc2ccco2)CC(=O)N=C2C=CC=CN21` (stereo unspecified), “inactive”; as for `Cn1cccc1CC(=O)N/N=C\c1ccccc1`, “inactive”.
For the compound `Cc1cc(NC(=O)CCCC(=O)NCc2ccccc2)no1`, the percent span entry is “inactive”.
For the compound `Cc1cccn2c(=O)c3cc(C(N)=S)c(=N)n(CCCN4CCOCC4)c3nc12`, the percent span entry is “inactive”.
Turning to `COC(=O)C1C2c3ccccc3OC1(C)N=c1s/c(=C/c3cnn(C)c3C)c(=O)n12` (stereo unspecified), the percent span entry is “inactive”.
The value for `COc1cccc2c(SCC(=O)N/N=C/c3ccc(O)c(O)c3)cc(C)nc12` was “inactive”; that for `COc1c(C)cc(Br)cc1C(=O)Nc1ccc(S(N)(=O)=O)cc1` was “inactive”; that for `Cc1ccc(SCCC(=O)Nc2ccc(Br)c(C)c2)cc1` was “inactive”.
With `Cc1ccc(-c2cc(-c3ccc(C)o3)nc(N)c2C#N)cc1`, the percent span result was “inactive”.
For the compound `O=C1NC(=S)S/C1=C/c1ccc(N2CCOCC2)o1`, the percent span entry is “inactive”.
For the compound `CCN1/C(=C\c2ccc3cc(C)ccc3[n+]2CC)Sc2cc(C)c(C)cc21`, the percent span entry is “inactive”.
On to `O=C(O)CCN1C(=O)/C(=C\c2ccc(-c3nc4ccccc4s3)o2)SC1=S`, for which the percent span entry was “inactive”.
Regarding `O=C(Nc1ccncc1)c1cc2ccccc2o1`, the percent span entry is “inactive”.
As for `COc1ccccc1NC1=C(NC(C)=O)C(=O)c2ccccc2C1=O`, the entry is “inactive”; as for `Cc1ccc(C(=O)C(C(=O)/C=C/c2ccccc2)=C2SCCCS2)cc1`, “inactive”.
With `O=c1c2c(n3nnnc3n1Cc1ccccc1)-c1ccccc1CC21CCCC1`, the percent span entry is “inactive”.
The value for `CCOc1ccccc1-n1c(=O)c2ccccc2c2ccccc2c1=O` was “inactive”; that for `CCC(=O)OCCNc1cc(Sc2nc3ccccc3s2)c2nonc2c1[N+](=O)[O-]` was “inactive”.
`O=C(NCCCN1CCN(CCCNC(=O)c2cc([N+](=O)[O-])ccc2Cl)CC1)c1cc([N+](=O)[O-])ccc1Cl`: the percent span result is “inactive”.
In the case of `COc1ccc(NC(=O)c2c(F)cccc2F)cc1S(=O)(=O)Nc1ccc(Br)cc1`, the percent span entry was “inactive”.
As for `CCOC(=O)C1CCCN(c2ncnc3c2cnn3-c2cccc(C)c2)C1` (stereo unspecified), the entry is “inactive”; as for `Cc1cc(N2CCN(C)CC2)nc2ccc(NC(=S)N3CCCCC3)cc12`, “inactive”.
Turning to `COC(=O)c1ccc(C)c(NC(=O)CCNC(=O)c2ccc([N+](=O)[O-])cc2)c1`, the percent span result is “inactive”.
`Fc1ccc(Cn2nnnc2C(c2ccc(Cl)cc2)N2CCSCC2)cc1` (stereo unspecified): the percent span entry is “inactive”.
In the case of `CNC(CC(=O)c1ccc([N+](=O)[O-])cc1)C(Cl)(Cl)Cl` (stereo unspecified), the percent span result was “inactive”.
The value for `CCOc1cc(CNc2ccc(N(C)C)cc2)cc(Br)c1OCC(=O)NC(C)(C)C` was “inactive”; that for `CC(C)C(=O)N1CCN(c2ccc([N+](=O)[O-])cc2Cl)CC1` was “inactive”; that for `COc1ccc(-n2c(SCC(=O)Nc3ccc(C(=O)O)cc3)nnc2-c2cccs2)cc1` was “inactive”.
